Results as given in patent US7101844B2, “Cytoplasmic transduction peptides and uses thereof” (Creagene, Inc., priority 2002, dated 2006).
Entries after “also recorded” stand apart in the source; their conditions may differ.

Experiments:
Type in all cases: cell-based
HeLa cells [1] = experiment: Transduction of PTD- and CTP-β-galactosidase into HeLa cells (X-gal staining after fixation); settings: 100 μg/ml, 1 hr; for transduction potential: β-galactosidase fusion protein, HeLa cells, fixation
Description: Although various other substitutions could be performed, it is essential in this invention that the introduction of a positive charge by arginine and the substitution by an α-helix stabilizing amino acid should be carried out for maintaining the principle function of the PTD peptide. Therefore, as a substitute amino acid, the positively charged amino acid is restricted to arginine, and the negatively charged amino acid is restricted to glutamic acid. β-galactosidase was fused to the CTP candidate peptide, the fusion proteins were isolated and purified (see FIG. 2), and HeLa cells were treated with each of the fusion proteins. This was then followed by an analysis of the transduction potential and a determination of the extent of the cytoplasmic remaining property.
The transduction potential of the PTD and CTP candidates was tested with HeLa cells. Using a 24-well plate (Nunc), 5×10^4 HeLa cells were inoculated into high glucose DMEM (containing 10% FBS) and cultured for 36 hr. The cells were rinsed with PBS and treated with 100 μg/ml of PTD- and CTP-β-galactosidase in an opti-MEM I medium. After 1-hr incubation, cells were fixed for 10 min at room temperature with a fixation solution (2% formaldehyde, 0.2% glutaraldehyde in PBS). Then, the cells were rinsed twice with PBS, and stained for 2 hr with dye (0.1% X-gal, 5 mM potassium ferricyanide, 5 mM potassium ferrocyanide, 2 mM MgCl2 in PBS) to examine their transduction potential (see FIG. 3). The samples showing a low level of staining, even after a 2-hr staining, were incubated overnight, and then stained for the relative transduction potential. The transduction potentials of the PTD and CTP candidates into HeLa cells were seen to be in the following order: PTD5<CTP502<<CTP501=CTP506<CTP507<CTP505<CTP503=CTP504<CTP508=CTP510=MTS<CTP509<<PTD=CTP511<<CTP512.

HeLa cells [2] = experiment: Subcellular localization of CTP-β-gal by confocal scanning microscope; settings: β-galactosidase fusion protein, 100 μg/ml, 1 hr
Description: To select cytoplamic transduction peptides (CTPs) of interest, HeLa cells were transduced with CTP-β-galactosidase, and then examined under the confocal scanning microscope. Before the confocal analysis, cells were stained with mouse anti-β-galactosidase antibody and 2nd antibodies conjugated with FITC (Fluorescence-iso-thio-cyanate) or with PE (phycoerythrin) together with DNA staining reagent (green fluorescence SYTO-16 DNA staining dye, Molecular Probe). First, HeLa cells (5×10^5 cells/ml) were plated onto a 6-well plate containing sterilized cover-slips and cultured overnight at 37° C. CO2 incubator. The cells were washed with PBS (pH 7.4) and 1 ml of an OPTI-MEM I medium was added, followed by treatment with candidate CTP-fused proteins (100 μg/ml). As a positive control, PTD-β-galactosidase fusion protein was employed, and as a negative control, only β-galactosidase protein was used. Following the treatment with candidate CTP-β-galactosidase fusion proteins, cells were incubated for 1 hr at 37° C. incubator. The cells were rinsed three times with PBS and fixed with 2% paraformaldehyde for 20 min at 4° C. HeLa cells fixed were washed twice with washing buffer (PBS containing 0.2% BSA and 0.02% sodium azide). To stain the cells with antibody, cells were pre-treated with 0.5% Triton X-100 (in PBS, Sigma) at 4° C. for 20 min. Cells were washed three times with washing buffer and then stained with mouse anti-β-galactosidase antibody (diluted 1:2,000, Sigma) for 1 hr at 4° C. as a primary antibody and then washed three times with washing buffer. Cells were then incubated with FITC-conjugated goat anti-mouse IgG (diluted 1:2,000, Jackson Laboratory) as a secondary antibody for 20 min at 4° C. Washed 3 times with the same washing buffer, cells were fixed on a slide glass with fluorescence mounting medium (DAKO) and the edge of slide glass was sealed with nail vanish.
Double staining was carried out with SYTO-16 DNA staining dye as follows: First, the cells were incubated with the primary antibodies under the same conditions and rinsed three times. Then, the cells were incubated at 4° C. for 20 min with PE-conjugated goat anti-mouse IgG PE (diluted 1:2,000, Jackson Laboratory). Washed three times with washing buffer, cells were incubated with SYTO-16 DNA staining dye (diluted 1:1,000, DAKO) for 20 min at 4° C. Cells were fixed and sealed on a slide glass and then examined under a confocal laser scanning microscope.
In the present experiment, LEICA TCS NT SP confocal microscope (LEICA Lasertech GmbH, Heidelverg, Germany) was employed, which was equipped with lager generator of argon (Ar) and krypton (Kr), scanning device, and filter capable of detecting FITC (510–550 nm) and PE (600–660) at independent channel. Photographs were taken by PL-APO X100 objective. For single staining, the cells were sectioned into 4-layers and fluorescence and transmission photographs were taken. For double staining, FITC, PE, and transmission photographs were taken using optimal respective filter.

HeLa cells [3] = experiment: Subcellular localization of CTP-FITC by confocal microscope without cell fixation; settings: FITC-labeled peptide, 25 μg/ml, 1 hr
Description: Fixation step is inevitable for examining the subcellular localization of the transduced β-gal in the cells with antibodies. However, according to the previous reports, the fusion protein attached to cell surface is very likely to be introduced into the cell during a cell fixation procedure, which may affect its transduction potential and its subcellular localization. However, FITC-labeled membrane permeation peptides allow its subcellular localization to be observed under a confocal microscope without cell fixation. Monolayered HeLa cells were treated for 1 hr with FITC-labeled CTP, PTD or MTS at a concentration of 25 μg/ml, and washed three times with HBSS, followed by observation under a confocal microscope without cell fixation.

CTP512: CTP (2G4R8R9R), sequence YGRRARRRRRR; representative CTP used from Example 5-4 on
transduction potential (HeLa cells [1]): higher transduction potential than the wild type PTD; also recorded: significantly high transduction potential | transduction potential (HeLa cells [1]; listed as CTP 512): transduction potential higher than wild type PTD | order of transduction potentials into HeLa cells (HeLa cells [1]; β-galactosidase fusion, X-gal staining): CTP511<<CTP512 | cytoplasmic remaining property / subcellular localization (HeLa cells [2]): excellent cytoplamic localization property; also recorded: excellent cytoplamic remaining property; also recorded: significantly high | cytoplasmic remaining property / subcellular localization (HeLa cells [2]; listed as CTP 512): excellent cytoplasmic remaining property | order of transduction potential (HeLa cells [3]): CTP512>513 | subcellular localization (HeLa cells [3]): observed only in the cytoplasm, and not in the nucleus
